Experimental data published in patent publication US10793914B2, “Cancer-related biological materials in microvesicles” (THE GENERAL HOSPITAL CORPORATION, priority 2010, dated 2020).

Tested on: medulloblastoma D384 cells
Assay: exoDNA yield in microvesicles after inhibition of DNA replication with L-mimosine
Assay type: cell-based, human
Details: D384 cells treated with L-mimosine (200, 400 and 600 μM), microvesicles isolated from medium after 48 hrs, ssDNA yield compared to mock treated cells
Protocol: D384 cells were seeded in 6-well plates and treated with increasing dosages of L-mimosine (200, 400 and 600 μM) or mock treated. Microvesicles were isolated from the medium after 48 hrs and ssDNA was extracted using the Qiagen PCR purification kit. Single-stranded DNA yields were quantified using the Bioanalyzer and the yields were compared to mock treated cells (normalized to 1.0).
We used L-mimosine to inhibit DNA replication and examined whether the inhibition affected the yield of exoDNA. If the exoDNA yield is decreased after inhibition, it is very likely that exoDNA may contain fragments of genomic DNA.
Specifically, D384 cells were plated on 6-well plates (2×10^6 cells/well) and treated with increasing amounts (200, 400 and 600 μM) of L-mimosine (Sigma-Aldrich, St. Louis, Mo.) which is an inhibitor of DNA replication. The drug was added at one time point and 48 hrs after, the media was collected and processed for the isolation of microvesicles. Cell viability was assessed by cell count using the Countess Automated Cell Counter (Invitogen). SsDNA yields are normalized to one.

N[C@@H](Cn1ccc(=O)c(O)c1)C(=O)O [L-mimosine]
decrease of exoDNA yield in microvesicles: about 50%
